This note sets out measurements from patent US8129371B2, “Thienopyrimidine and pyrazolopyrimidine compounds and their use as mTOR kinase and PI3 kinase inhibitors” (Wyeth LLC, priority 2007, dated 2012).

Each structure is given as a SMILES string. Read-outs that look alike come from different tables or passages of the source.

The target in one assay is T1, Human mTOR (FLAG-TOR) (Homo sapiens, UniProt P42345).
T1 construct: FLAG
Put plainly: Human mTOR kinase assay with purified enzyme, DELFIA format. The class given is biochemical. The method, boiled down:
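DELFIA readout: Eu-anti-P(T389)-S6K antibody (40 ng/mL, 1 h) on captured His6-S6K from the stopped reaction. Kinase step used purified FLAG-tagged human mTOR with test compound in HEPES (pH 7.4)/MnCl2/DTT buffer, 2 h at room temperature (linear 1–6 h), terminated by EDTA/EGTA.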

For assay [1], the target named is T2, PI3K (Homo sapiens, UniProt P42336).
T2 construct: PI3 Kinase α IC50; other: PI3 Kinase α; other: PI3 Kinase α isoform, fluorescence polarization
T2 sequence (P42336 whole entry, canonical isoform): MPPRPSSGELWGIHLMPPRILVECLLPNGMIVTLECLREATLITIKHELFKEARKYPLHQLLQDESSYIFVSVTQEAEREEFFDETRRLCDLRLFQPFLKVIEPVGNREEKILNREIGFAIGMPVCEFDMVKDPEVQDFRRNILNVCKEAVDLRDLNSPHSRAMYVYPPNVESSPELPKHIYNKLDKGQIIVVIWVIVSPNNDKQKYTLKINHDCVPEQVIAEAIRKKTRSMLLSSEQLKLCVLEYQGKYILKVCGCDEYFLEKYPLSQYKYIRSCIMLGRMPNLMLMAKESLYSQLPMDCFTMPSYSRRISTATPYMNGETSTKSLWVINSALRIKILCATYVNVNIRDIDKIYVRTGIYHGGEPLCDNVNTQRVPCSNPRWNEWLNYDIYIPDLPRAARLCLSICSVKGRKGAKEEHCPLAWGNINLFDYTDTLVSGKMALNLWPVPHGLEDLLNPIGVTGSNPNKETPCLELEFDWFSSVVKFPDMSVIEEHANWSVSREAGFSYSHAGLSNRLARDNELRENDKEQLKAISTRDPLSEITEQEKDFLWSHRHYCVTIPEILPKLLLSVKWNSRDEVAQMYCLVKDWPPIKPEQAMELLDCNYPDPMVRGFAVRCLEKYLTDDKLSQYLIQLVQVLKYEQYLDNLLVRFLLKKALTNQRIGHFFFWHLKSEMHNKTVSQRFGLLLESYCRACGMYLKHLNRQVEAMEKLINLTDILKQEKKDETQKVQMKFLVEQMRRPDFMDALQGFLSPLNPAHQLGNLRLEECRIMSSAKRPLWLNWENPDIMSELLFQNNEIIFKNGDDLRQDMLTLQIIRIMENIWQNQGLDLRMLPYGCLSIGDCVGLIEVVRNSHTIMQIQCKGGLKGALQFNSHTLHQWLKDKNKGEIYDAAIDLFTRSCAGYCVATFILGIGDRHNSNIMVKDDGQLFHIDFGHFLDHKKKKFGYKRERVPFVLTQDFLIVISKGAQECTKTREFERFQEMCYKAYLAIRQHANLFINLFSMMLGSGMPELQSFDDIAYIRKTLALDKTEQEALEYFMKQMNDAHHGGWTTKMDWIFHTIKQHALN
In words: Fluorescence polarization assay for PI3K. Format: biochemical. Conditions: read-out: PI3 Kinase α IC50. The method, boiled down: (§1)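 Fluorescence-polarization competition readout: after 30–60 min of PIP2/ATP turnover in 1% DMSO, a stop mix with GST-GRP (70 nM) and red probe (10 nM) was added.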
On the technique in general: Fluorescence polarisation rises when a labelled molecule tumbles more slowly, as on binding a larger partner.

For assay [2], the target named is T3, PI3K (Homo sapiens, UniProt P48736).
T3 construct: PI3 Kinase γ IC50; other: PI3 Kinase γ; other: PI3 Kinase γ isoform, fluorescence polarization
T3 sequence (P48736 whole entry, canonical isoform): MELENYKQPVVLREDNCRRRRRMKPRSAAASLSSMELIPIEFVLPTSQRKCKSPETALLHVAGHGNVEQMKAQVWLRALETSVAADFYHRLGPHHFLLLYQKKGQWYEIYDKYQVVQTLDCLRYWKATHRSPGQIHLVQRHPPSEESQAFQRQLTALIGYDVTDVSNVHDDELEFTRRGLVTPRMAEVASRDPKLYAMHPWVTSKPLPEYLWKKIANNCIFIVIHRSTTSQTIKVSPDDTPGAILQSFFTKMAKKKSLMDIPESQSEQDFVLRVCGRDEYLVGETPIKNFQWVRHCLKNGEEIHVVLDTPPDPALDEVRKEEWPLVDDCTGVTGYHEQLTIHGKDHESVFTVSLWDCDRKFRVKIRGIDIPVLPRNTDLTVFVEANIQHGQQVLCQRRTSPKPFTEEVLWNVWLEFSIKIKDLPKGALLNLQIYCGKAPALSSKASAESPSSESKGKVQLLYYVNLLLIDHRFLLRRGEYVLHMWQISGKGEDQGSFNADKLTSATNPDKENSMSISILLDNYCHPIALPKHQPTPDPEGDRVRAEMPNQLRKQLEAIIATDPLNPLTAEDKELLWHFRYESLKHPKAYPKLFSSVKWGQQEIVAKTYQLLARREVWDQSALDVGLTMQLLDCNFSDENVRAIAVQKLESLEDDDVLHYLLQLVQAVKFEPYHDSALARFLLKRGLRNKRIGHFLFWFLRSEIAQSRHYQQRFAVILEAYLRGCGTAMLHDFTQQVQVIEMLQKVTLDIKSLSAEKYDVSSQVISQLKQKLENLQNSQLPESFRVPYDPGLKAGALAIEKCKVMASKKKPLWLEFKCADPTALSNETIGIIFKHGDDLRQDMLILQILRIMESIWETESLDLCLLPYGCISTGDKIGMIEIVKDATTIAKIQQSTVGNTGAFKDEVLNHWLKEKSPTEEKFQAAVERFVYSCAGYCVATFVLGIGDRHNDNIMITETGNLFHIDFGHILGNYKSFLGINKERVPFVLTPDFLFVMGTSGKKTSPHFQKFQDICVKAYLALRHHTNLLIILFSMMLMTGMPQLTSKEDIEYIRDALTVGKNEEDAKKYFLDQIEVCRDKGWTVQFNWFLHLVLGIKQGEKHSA
Put plainly: Fluorescence polarization assay for PI3K. The class given is biochemical. As to conditions: read-out: PI3 Kinase γ IC50. In short, it runs like this:
as §1

The next assay has as its system breast line MDA468. In words: In vitro cell culture growth assay (MTS), MDA468. Conditions: Homo sapiens, 72 h, MDA468 cells, three days after drug treatment. The class given is cell-based. In short, it runs like this: (§2)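 Growth is reported as percent of vehicle-treated control grown in the same plate, with viability determined by metabolic conversion of MTS dye and absorbance read at 490 nm. Compounds were applied one day after plating and left for three days.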

In a further assay the test system is prostate line LNCap. Put plainly: In vitro cell culture growth assay (MTS), LNCap. The class given is cell-based. As to conditions: Homo sapiens, LNCaP, 72 h, LNCap cells, three days after drug treatment. The method, boiled down: as §2
The mark [3] stands for this setting: purified human mTOR enzyme, DELFIA format.
The mark [4] stands for this setting: PI3 Kinase α isoform, fluorescence polarization.
[5] abbreviates: PI3 Kinase γ isoform, fluorescence polarization.

In the case of `COC(=O)N1CCC(n2ncc3c(N4C5CCC4COC5)nc(-c4ccc(NC(=O)Nc5ccc(CN6CCN(C)CC6)cc5)cc4)nc32)CC1` [Example 367, methyl 4-[6-{4-[({4-[(4-methylpiperazin-1-yl)methyl]phenyl}carbamoyl)amino]phenyl}-4-(3-oxa-8-azabicyclo[3.2.1]oct-8-yl)-1H-pyrazolo[3,4-d]pyrimidin-1-yl]piperidine-1-carboxylate], the IC50 (in general, the concentration needed to halve the response being measured) was 0.88 nM on Human mTOR (FLAG-TOR) (setting [3]); 2390 nM on PI3K [1] (setting [4]); 1820 nM on PI3K [2] (setting [5]); 13 nM in the assay on breast line MDA468; 1 nM in the assay on prostate line LNCap.

As for `O=C(Nc1ccc(-c2nc(N3CC4CCC(C3)O4)c3cnn(CCF)c3n2)cc1)OCCO` [Example 245, 2-hydroxyethyl {4-[1-(2-fluoroethyl)-4-(8-oxa-3-azabicyclo[3.2.1]oct-3-yl)-1H-pyrazolo[3,4-d]pyrimidin-6-yl]phenyl}carbamate], the IC50 was 1.2 nM at Human mTOR (FLAG-TOR); 2900 nM at PI3K [1] (PI3 Kinase α); above 10000 nM at PI3K [2] (PI3 Kinase γ); 900 nM in the assay on breast line MDA468; 130 nM in the assay with prostate line LNCap.

Regarding `CCn1ncc2c(N3CC4CCC(C3)O4)nc(-c3ccc(NC(=O)Nc4ccc(OC)cc4)cc3)nc21` [Example 187, 1-{4-[1-ethyl-4-(8-oxa-3-azabicyclo[3.2.1]oct-3-yl)-1H-pyrazolo[3,4-d]pyrimidin-6-yl]phenyl}-3-(4-methoxyphenyl)urea], the IC50 at Human mTOR (FLAG-TOR) amounted to 0.405 nM; on PI3K [1] (PI3 Kinase α), 199 nM; on PI3K [2] (PI3 Kinase γ), 3800 nM; with breast line MDA468 it was 19 nM; in the assay on prostate line LNCap, 1 nM.

Regarding `O=C(Nc1ccc(-c2nc(N3CC4CCC(C3)O4)c3cnn(CC(F)(F)F)c3n2)cc1)Nc1ccc(N2CCOCC2)cc1` [Example 251, 1-(4-morpholin-4-ylphenyl)-3-{4-[4-(8-oxa-3-azabicyclo[3.2.1]oct-3-yl)-1-(2,2,2-trifluoroethyl)-1H-pyrazolo[3,4-d]pyrimidin-6-yl]phenyl}urea], the IC50 at Human mTOR (FLAG-TOR) is 0.34 nM; on PI3K [1] (PI3 Kinase α), 1000 nM; at PI3K [2] (PI3 Kinase γ), above 10000 nM; in the assay on breast line MDA468, below 1 nM; in the assay on prostate line LNCap, below 1 nM.

For `O=C(Nc1ccc(-c2nc(N3CC4CCC(C3)O4)c3cnn(CCO)c3n2)cc1)Nc1ccc(N2CCOCC2)cc1` [Example 204, 1-{4-[1-(2-hydroxyethyl)-4-(8-oxa-3-azabicyclo[3.2.1]oct-3-yl)-1H-pyrazolo[3,4-d]pyrimidin-6-yl]phenyl}-3-(4-morpholin-4-ylphenyl)urea], the IC50 turned out to be 0.49 nM on Human mTOR (FLAG-TOR); 274 nM on PI3K [1] (PI3 Kinase α); 11300 nM at PI3K [2] (PI3 Kinase γ); 35 nM with breast line MDA468; 6 nM in the assay with prostate line LNCap.

In the case of `O=C(Nc1ccc(-c2nc(N3CC4CCC(C3)O4)c3cnn(C4CCC5(CC4)OCCO5)c3n2)cc1)Nc1cccnc1` [Example 376, 1-{4-[1-(1,4-dioxaspiro[4.5]dec-8-yl)-4-(8-oxa-3-azabicyclo[3.2.1]oct-3-yl)-1H-pyrazolo[3,4-d]pyrimidin-6-yl]phenyl}-3-pyridin-3-ylurea], the IC50 against Human mTOR (FLAG-TOR) (setting [3]) was found to be 0.125 nM; on PI3K [1] (setting [4]), 270 nM; on PI3K [2] (setting [5]), 4060 nM; in the assay with breast line MDA468 it was 5 nM; in the assay on prostate line LNCap, 1 nM.

For the compound `CC(C)(C)OC(=O)N1CCC(n2ncc3c(N4CC5CCC(C4)O5)nc(-c4ccc(NC(=O)Nc5cccnc5)cc4)nc32)CC1` [Example 24, tert-butyl 4-[4-(8-oxa-3-azabicyclo[3.2.1]oct-3-yl)-6-{4-[(pyridin-3-ylcarbamoyl)amino]phenyl}-1H-pyrazolo[3,4-d]pyrimidin-1-yl]piperidine-1-carboxylate], the IC50 at Human mTOR (FLAG-TOR) came to 0.39 nM; on PI3K [1] (PI3 Kinase α), 629 nM; at PI3K [2] (PI3 Kinase γ) it was 6300 nM; in the assay with breast line MDA468 it was 18 nM; in the assay with prostate line LNCap, 7 nM.

Consider `COC(=O)N1CCC(n2ncc3c(N4C5CCC4COC5)nc(-c4ccc(NC(=O)Nc5ccc(OCCN(C)C)cc5)cc4)nc32)CC1` [Example 368, methyl 4-[6-{4-[({4-[2-(dimethylamino)ethoxy]phenyl}carbamoyl)amino]phenyl}-4-(3-oxa-8-azabicyclo[3.2.1]oct-8-yl)-1H-pyrazolo[3,4-d]pyrimidin-1-yl]piperidine-1-carboxylate], for which the IC50 against Human mTOR (FLAG-TOR) (setting [3]) came to 0.885 nM; on PI3K [1] (setting [4]) it was 1160 nM; at PI3K [2] (setting [5]), 2000 nM; in the assay on breast line MDA468 it was 4 nM; with prostate line LNCap it was 1 nM.

`CNC(=O)Nc1ccc(-c2nc(N3CC4CCC(C3)O4)c3cnn(C(C)C)c3n2)cc1` [Example 139, 1-{4-[1-isopropyl-4-(8-oxa-3-azabicyclo[3.2.1]oct-3-yl)-1H-pyrazolo[3,4-d]pyrimidin-6-yl]phenyl}-3-methylurea]: the IC50 stood at 0.115 nM on Human mTOR (FLAG-TOR); 234 nM on PI3K [1] (PI3 Kinase α); 6170 nM at PI3K [2] (PI3 Kinase γ); 50 nM in the assay with breast line MDA468; 5 nM in the assay with prostate line LNCap.

For `CCn1nc(C=O)c2c(N3CC4CCC(C3)O4)nc(-c3ccc(NC(=O)NC)cc3)nc21` [Example 352, 1-{4-[1-ethyl-3-formyl-4-(8-oxa-3-azabicyclo[3.2.1]oct-3-yl)-1H-pyrazolo[3,4-d]pyrimidin-6-yl]phenyl}-3-methylurea], the half-inhibitory concentration (IC50) on Human mTOR (FLAG-TOR) (setting [3]) was 17.5 nM; on PI3K [1] (setting [4]), 1080 nM; on PI3K [2] (setting [5]), 6100 nM; in the assay with breast line MDA468, 700 nM; in the assay on prostate line LNCap, 200 nM.

For the compound `O=C1OCCN1c1ccc(-c2nc(N3CC4CCC(C3)O4)c3cnn(C4CCC5(CC4)OCCO5)c3n2)cc1` [Example 131, 3-{4-[1-(1,4-dioxaspiro[4.5]dec-8-yl)-4-(8-oxa-3-azabicyclo[3.2.1]oct-3-yl)-1H-pyrazolo[3,4-d]pyrimidin-6-yl]phenyl}-1,3-oxazolidin-2-one], the half-inhibitory concentration (IC50) on Human mTOR (FLAG-TOR) is 635 nM; on PI3K [1] (PI3 Kinase α) it was above 10000 nM; on PI3K [2] (PI3 Kinase γ), above 10000 nM; in the assay with breast line MDA468 it was above 60000 nM; in the assay on prostate line LNCap, above 60000 nM.

On to `O=C(Nc1ccccc1)Nc1ccc(-c2nc(N3CC4CCC(C3)O4)c3cnn(C4CCNCC4)c3n2)cc1` [Example 29, 1-{4-[4-(8-oxa-3-azabicyclo[3.2.1]oct-3-yl)-1-piperidin-4-yl-1H-pyrazolo[3,4-d]pyrimidin-6-yl]phenyl}-3-phenylurea], for which the IC50 on Human mTOR (FLAG-TOR) amounted to 2.3 nM; at PI3K [1] (PI3 Kinase α), 273 nM; at PI3K [2] (PI3 Kinase γ) it was 2310 nM; with breast line MDA468 it was 280 nM; in the assay on prostate line LNCap, 100 nM.

Take `CNC(=O)Nc1ccc(-c2nc(N3CC4CCC(C3)O4)c3sc(CN4CCN(S(C)(=O)=O)CC4)cc3n2)cc1` [Example 429, 1-methyl-3-{4-[6-{[4-(methylsulfonyl)piperazin-1-yl]methyl}-4-(8-oxa-3-azabicyclo[3.2.1]oct-3-yl)thieno[3,2-d]pyrimidin-2-yl]phenyl}urea]: the half-inhibitory concentration (IC50) at Human mTOR (FLAG-TOR) (setting [3]) came out at 1.41 nM; on PI3K [1] (setting [4]), 46 nM; on PI3K [2] (setting [5]), 3710 nM; in the assay on breast line MDA468, 90 nM; in the assay on prostate line LNCap, 120 nM.

`CCOC(=O)N1CCC(n2ncc3c(N4CC5CCC(C4)O5)nc(-c4ccc(NC(=O)Nc5ccccc5)cc4)nc32)CC1` [Example 33, ethyl 4-[4-(8-oxa-3-azabicyclo[3.2.1]oct-3-yl)-6-{4-[(phenylcarbamoyl)amino]phenyl}-1H-pyrazolo[3,4-d]pyrimidin-1-yl]piperidine-1-carboxylate]: the IC50 amounted to 0.36 nM on Human mTOR (FLAG-TOR); 215 nM at PI3K [1] (PI3 Kinase α); 4280 nM on PI3K [2] (PI3 Kinase γ); 18 nM in the assay on breast line MDA468; 0.9 nM with prostate line LNCap.

`CCn1nc(N2CCN(C)CC2)c2c(N3CC4CCC(C3)O4)nc(-c3ccc(NC(=O)NC)cc3)nc21` [Example 348, 1-{4-[1-ethyl-3-(4-methylpiperazin-1-yl)-4-(8-oxa-3-azabicyclo[3.2.1]oct-3-yl)-1H-pyrazolo[3,4-d]pyrimidin-6-yl]phenyl}-3-methylurea]: the IC50 is 7.5 nM against Human mTOR (FLAG-TOR) (setting [3]); 1010 nM at PI3K [1] (setting [4]); 8590 nM at PI3K [2] (setting [5]); 1000 nM in the assay with breast line MDA468; 280 nM with prostate line LNCap.

As for `O=C(Nc1ccc(-c2nc(N3CC4CCC(C3)O4)c3cnn(C4CCN(Cc5ccccc5)CC4)c3n2)cc1)OCCO` [Example 264, 2-hydroxyethyl {4-[1-(1-benzylpiperidin-4-yl)-4-(8-oxa-3-azabicyclo[3.2.1]oct-3-yl)-1H-pyrazolo[3,4-d]pyrimidin-6-yl]phenyl}carbamate], the IC50 worked out at 2.9 nM on Human mTOR (FLAG-TOR); 1690 nM on PI3K [1] (PI3 Kinase α); 8840 nM on PI3K [2] (PI3 Kinase γ); 700 nM with breast line MDA468; 38 nM with prostate line LNCap.

Turning to `O=C(Nc1ccc(-c2nc(N3CC4CCC(C3)O4)c3sccc3n2)cc1)NC1CC1` [Example 410, 1-cyclopropyl-3-{4-[4-(8-oxa-3-azabicyclo[3.2.1]oct-3-yl)thieno[3,2-d]pyrimidin-2-yl]phenyl}urea], the 50% inhibitory concentration (IC50) was 0.71 nM at Human mTOR (FLAG-TOR) (setting [3]); 1360 nM at PI3K [1] (setting [4]); at least 10000 nM on PI3K [2] (setting [5]); 780 nM with breast line MDA468; 40 nM in the assay with prostate line LNCap.
